According to patent publication US7687643B2, “Process for preparing 3,3-dimethylindolines” (Amgen Inc., priority 2001, dated 2010):

Tested on: Human Umbilical Vein Endothelial cells (VEGF-stimulated)
Experiment: HUVEC proliferation assay, VEGF-stimulated
Type: cell-based
Details: VEGF 50 ng/mL, 72 h, CyQuant, read-out: inhibited VEGF-stimulated HUVEC proliferation at a level
In short: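 Pooled-donor HUVECs (passage 2–3) seeded in DMEM+10% FBS for 22 h, then pre-treated 2–3 h with five-point, five-fold compound dilutions (0.25% DMSO final). Stimulated with 50 ng/mL VEGF (bFGF 20 ng/mL on separate plates) for 72 h at 37 °C. CyQuant fluorescence (485/530 nm) after freeze-thaw; IC50 from 4-parameter fit.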

CNc1cc(CNc2ncccc2C(=O)Nc2ccc3c(c2)NC(=O)CC3(C)C)ccn1 [Example 1119, N-(4,4-Dimethyl-2-oxo-1,2,3,4-tetrahydro-quinolin-7-yl)-2-[(2-methylamino-pyridin-4-ylmethyl)-amino]-nicotinamide]
IC50: < 50 nM

CNc1cc(CNc2ncccc2C(=O)Nc2ccc3c(c2)N(S(C)(=O)=O)CC3(C)C)ccn1 [Example 1058, N-(3,3-dimethyl-1-(methylsulfonyl)-2,3-dihydro-1H-indol-6-yl)-2-(((2-(methylamino)-4-pyridinyl)methyl)amino)-3-pyridinecarboxamide]
IC50: < 50 nM

CC(=O)N1CC(C)(C)c2ccc(NC(=O)c3cccnc3NCc3ccncn3)cc21 [Example 1022, N-(1-Acetyl-3,3-dimethyl-2,3-dihydro-1H-indol-6-yl)-2-((4-pyrimidinylmethyl)amino)-3-pyridinecarboxamide]
IC50: < 50 nM

CNc1cc(CNc2ncccc2C(=O)Nc2ccc3c(c2)CNCC3(C)C)ccn1 [Example 1130, N-(4,4-Dimethyl-1,2,3,4-tetrahydro-isoquinolin-7-yl)-2-[(2-methylamino-pyridin-4-ylmethyl)-amino]-nicotinamide]
IC50: < 50 nM

CC1(C)CNCc2cc(NC(=O)c3cccnc3NCc3ccnc4c3CCN4)ccc21 [Example 1147, 2-[(2,3-Dihydro-1H-pyrrolo[2,3-b]pyridin-4-ylmethyl)-amino]-N-(4,4-dimethyl-1,2,3,4-tetrahydro-isoquinolin-7-yl)-nicotinamide]
IC50: < 50 nM

O=C(Nc1ccc(C(F)(F)C(F)(F)F)c(OC[C@H](O)CN2CCCC2)c1)c1cccnc1NCc1ccncc1 [Example 951, (R) N-[3-(2-Hydroxy-3-pyrrolidin-1-yl-propoxy)-4-pentafluoroethyl-phenyl]-2-[(pyridin-4-ylmethyl)-amino]-nicotinamide]
IC50: < 50 nM

CN1CCC(CCCOc2cc(CNc3ncccc3C(=O)Nc3cccc(C(F)(F)F)c3)ccn2)CC1 [Example 923, 2-({2-[3-(1-Methyl-piperidin-4-yl)-propoxy]-pyridin-4-ylmethyl}-amino)-N-(3-trifluoromethyl-phenyl)-nicotinamide]
IC50: < 50 nM

O=C(Nc1ccc(C(OC[C@@H]2CCCN2)(C(F)(F)F)C(F)(F)F)cc1)c1cccnc1NCc1ccncc1 [Example 1141, 2-[(Pyridin-4-ylmethyl)-amino]-N-{4-[2,2,2-trifluoro-1-(pyrrolidin-2-ylmethoxy)-1-trifluoromethyl-ethyl]-phenyl}-nicotinamide]
IC50: < 50 nM

CNc1nccc(CNc2ncccc2C(=O)Nc2ccc3c(c2)NC(=O)CC3(C)C)n1 [Example 1115, N-(4,4-Dimethyl-2-oxo-1,2,3,4-tetrahydro-quinolin-7-yl)-2-[(2-methylamino-pyrimidin-4-ylmethyl)-amino]-nicotinamide]
IC50: < 50 nM

CNc1nccc(CNc2ncccc2C(=O)Nc2cc(OC[C@@H]3CCCN3C)cc(C(F)(F)F)c2)n1 [Example 1144, 2-[(2-Methylamino-pyrimidin-4-ylmethyl)-amino]-N-[3-(1-methyl-pyrrolidin-2-ylmethoxy)-5-trifluoromethyl-phenyl]-nicotinamide]
IC50: < 50 nM

CN1CCC(COc2cc(NC(=O)c3cccnc3NCc3ccncc3)ccc2C(F)(F)C(F)(F)F)CC1 [Example 954, N-[3-(1-Methyl-piperidin-4-ylmethoxy)-4-pentafluoroethyl-phenyl]-2-[(pyridin-4-ylmethyl)-amino]-nicotinamide]
IC50: < 50 nM

CC(=O)N1CC(C)(C)c2ccc(NC(=O)c3cccnc3Nc3ccc4c(c3)OCCO4)cc21 [Example 991, N-(1-Acetyl-3,3-dimethyl-2,3-dihydro-1H-indol-6-yl)-2-(2,3-dihydro-benzo[1,4]dioxin-6-ylamino)-nicotinamide]
IC50: < 50 nM

CC1(C)CN(Cc2cc[n+]([O-])cc2)c2cc(NC(=O)c3cccnc3NCc3ccncc3)ccc21 [Example 1099, N-[3,3-Dimethyl-1-(1-oxy-pyridin-4-ylmethyl)-2,3-dihydro-1H-indol-6-yl]-2-[(pyridin-4-ylmethyl)-amino]-nicotinamide]
IC50: < 50 nM

O=C(Nc1ccc2c(c1)N(CCN1CCCCC1)CC2)c1cccnc1NCc1ccncc1 [Example 130, N-[1-(2-Piperidylethyl)indolin-6-yl]{2-[(4-pyridylmethyl)amino](3-pyridyl)}carboxamide]
IC50: < 50 nM

CS(=O)(=O)Nc1cc(NC(=O)c2cccnc2NCc2ccncc2)cc(C(F)(F)F)c1 [Example 1095, N-(3-((methylsulfonyl)amino)-5-(trifluoromethyl)phenyl)-2-((4-pyridinylmethyl)amino)-3-pyridinecarboxamide]
IC50: < 50 nM

CNc1nccc(CNc2ncccc2C(=O)Nc2cc(OC[C@H]3CCCN3C)cc(C(F)(F)F)c2)n1 [Example 1044, 2-(((2-(methylamino)-4-pyrimidinyl)methyl)amino)-N-(3-((((2R)-1-methyl-2-pyrrolidinyl)methyl)oxy)-5-(trifluoromethyl)phenyl)-3-pyridinecarboxamide]
IC50: < 50 nM

CNc1nccc(CNc2ncccc2C(=O)Nc2ccc3c(c2)NC(=O)C3(C(F)(F)F)C(F)(F)F)n1 [Example 1036, 2-(((2-(Methylamino)-4-pyrimidinyl)methyl)amino)-N-(2-oxo-3,3-bis(trifluoromethyl)-2,3-dihydro-1H-indol-6-yl)-3-pyridinecarboxamide]
IC50: < 50 nM

O=C(Nc1ccc(C(F)(F)C(F)(F)F)c(OC[C@@H](O)CN2CCCC2)c1)c1cccnc1NCc1ccncc1 [Example 952, (S) N-[3-(2-Hydroxy-3-pyrrolidin-1-yl-propoxy)-4-pentafluoroethyl-phenyl]-2-[(pyridin-4-ylmethyl)-amino]-nicotinamide]
IC50: < 50 nM

CNc1nccc(CNc2ncccc2C(=O)Nc2cc(OCCNS(C)(=O)=O)cc(C(F)(F)F)c2)n1 [Example 1091, 2-(((2-(methylamino)-4-pyrimidinyl)methyl)amino)-N-(3-((2-((methylsulfonyl)amino)ethyl)oxy)-5-(trifluoromethyl)phenyl)-3-pyridinecarboxamide]
IC50: < 50 nM

CNc1cc(CNc2ncccc2C(=O)Nc2ccc3c(c2)NCCC3(C)C)ccn1 [Example 1194]
IC50: < 50 nM

CC1(C)CCNc2cc(NC(=O)c3cccnc3NCc3ccnc(N)c3)ccc21 [Example 1111, 2-[(2-Amino-pyridin-4-ylmethyl)-amino]-N-(4,4-dimethyl-1,2,3,4-tetrahydro-quinolin-7-yl)-nicotinamide]
IC50: < 50 nM

O=C(Nc1cc(NC(=O)c2cccnc2NCc2ccncc2)cc(C(F)(F)F)c1)O[C@H]1CCOC1 [Example 1088, (3S)-tetrahydro-3-furanyl 3-(((2-((4-pyridinylmethyl)amino)-3-pyridinyl)carbonyl)amino)-5-(trifluoromethyl)phenylcarbamate]
IC50: < 50 nM

CC1(C)CNCc2cc(NC(=O)c3cccnc3NCc3ccc4ncccc4c3)ccc21 [Example 1061, N-(4,4-dimethyl-1,2,3,4-tetrahydro-7-isoquinolinyl)-2-((6-quinolinylmethyl)amino)-3-pyridinecarboxamide]
IC50: < 50 nM

O=C(Nc1cccc(C(F)(F)F)c1)c1cccnc1NCc1ccncc1 [Example 82, 2-[(Pyridin-4-ylmethyl)-amino]-N-(3-trifluoromethyl-phenyl)-nicotinamide]
IC50: < 50 nM

CC1(C)CN(S(C)(=O)=O)c2cc(NC(=O)c3cccnc3NCc3ccncc3)ccc21 [Example 1068, N-(3,3-dimethyl-1-(methylsulfonyl)-2,3-dihydro-1H-indol-6-yl)-2-((4-pyridinylmethyl)amino)-3-pyridinecarboxamide]
IC50: < 50 nM

CC(C)N1CCC[C@H]1COc1cc(NC(=O)c2cccnc2NCc2ccncc2)cc(C(F)(F)F)c1 [Example 1096, N-(3-((((2S)-1-(1-methylethyl)-2-pyrrolidinyl)methyl)oxy)-5-(trifluoromethyl)phenyl)-2-((4-pyridinylmethyl)amino)-3-pyridinecarboxamide]
IC50: < 50 nM

CCN1CCC(C)(C)c2ccc(NC(=O)c3cccnc3NCc3ccnc(N)c3)cc21 [Example 1125, 2-[(2-Amino-pyridin-4-ylmethyl)-amino]-N-(1-ethyl-4,4-dimethyl-1,2,3,4-tetrahydro-quinolin-7-yl)-nicotinamide]
IC50: < 50 nM

CN1CCC(CCCOc2cc(CNc3ncccc3C(=O)Nc3ccc(C(C)(C)C)cc3)ccn2)CC1 [Example 924, 2-({2-[3-(1-Methyl-piperidin-4-yl)-propoxy]-pyridin-4-ylmethyl}-amino)-N-(4-tert-butyl-phenyl)-nicotinamide]
IC50: < 50 nM

COc1cc(CNc2ncccc2C(=O)Nc2ccc3c(c2)CNCC32CC2)ccn1 [Example 1128, N-(4-Spiro-1′-cyclopropane-1,2,3,4-tetrahydroisoquinolin-7-yl)-2-[(2-methoxy-pyridin-4-ylmethyl)-amino]-nicotinamide]
IC50: < 50 nM

O=C(Nc1ccc(C(F)(F)F)c(OCCN2CCCC2)c1)c1cccnc1NCc1ccncn1 [Example 1024, 2-((4-Pyrimidinylmethyl)amino)-N-(3-((2-(1-pyrrolidinyl)ethyl)oxy)-4-(trifluoromethyl)phenyl)-3-pyridinecarboxamide]
IC50: < 50 nM

CC1(C)CCNc2cc(NC(=O)c3cccnc3NCc3ccnc(N4CCOCC4)c3)ccc21 [Example 1154, N-(4,4-Dimethyl-1,2,3,4-tetrahydro-quinolin-7-yl)-2-[(2-morpholin-4-yl-pyridin-4-ylmethyl)-amino]-nicotinamide]
IC50: < 50 nM

CC1(C)CC(=O)Nc2cc(NC(=O)c3cccnc3NCc3ccncc3)ccc21 [Example 1114, N-(4,4-Dimethyl-2-oxo-1,2,3,4-tetrahydro-quinolin-7-yl)-2-[(pyridin-4-ylmethyl)-amino]-nicotinamide]
IC50: < 50 nM

CN(C)CC(=O)Nc1cc(NC(=O)c2cccnc2NCc2ccnc3ccccc23)ccc1C(C)(C)C [Example 1072, N-(4-(1,1-dimethylethyl)-3-((N,N-dimethylglycyl)amino)phenyl)-2-((4-quinolinylmethyl)amino)-3-pyridinecarboxamide]
IC50: < 50 nM
